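Growth conditions: 96-well plates. Treatment: test compound, 48 hours, 5 concentrations. Analysis: linear interpolation between bracketing concentrations; unreached endpoints set to highest concentration. GI50 marks 50% less growth.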 Active and inactive are the calls of the source. Rule as the data show it: active = GI50 up to about 1.1 µM and inactive = higher.
Assays:
Assay in all cases: NCI-60 cell line screen, 48 h
SNB-75 = system: SNB-75
HCT-116 = system: HCT-116
SF-539 = system: SF-539
SW-620 = system: SW-620
NCI-H460 = system: NCI-H460
HT-29 = system: HT-29
A498 = system: A498
SF-268 = system: SF-268
HOP-92 = system: HOP-92
OVCAR-8 = system: OVCAR-8
HCT-15 = system: HCT-15
SK-MEL-28 = system: SK-MEL-28
SK-MEL-2 = system: SK-MEL-2
EKVX = system: EKVX
K562 = system: K562
UO-31 = system: UO-31
OVCAR-5 = system: OVCAR-5
SK-OV-3 = system: SK-OV-3
SR = system: SR

Row | Compound | GI50 (SNB-75) | GI50 (HCT-116) | GI50 (SF-539) | GI50 (SW-620) | GI50 (NCI-H460) | GI50 (HT-29) | GI50 (A498) | GI50 (SF-268) | GI50 (HOP-92) | GI50 (OVCAR-8) | GI50 (HCT-15) [µM] | GI50 (SK-MEL-28) | GI50 (SK-MEL-2) | GI50 (EKVX) | GI50 (K562) | GI50 (UO-31) | GI50 (OVCAR-5) | GI50 (SK-OV-3) | GI50 (SR)
1 | COC(=O)C(=O)CC(=O)CCn1[nH]c(=O)c(Cl)c(Cl)c1=O | > 100 µM (inactive) | > 100 µM (inactive) | > 100 µM (inactive) | > 100 µM (inactive) | > 100 µM (inactive) | > 100 µM (inactive) | > 100 µM (inactive) | > 100 µM (inactive) | > 100 µM (inactive) | > 100 µM (inactive) | > 100 | > 100 µM (inactive) | > 100 µM (inactive) | > 100 µM (inactive) | > 100 µM (inactive) | > 100 µM (inactive) | > 100 µM (inactive) |  | 
2 | COC(=O)C1(C(=O)OC)N=C(C)OC1c1ccoc1 (stereo not drawn) | > 100 µM (inactive) | > 100 µM (inactive) |  | > 100 µM (inactive) | > 100 µM (inactive) |  | > 100 µM (inactive) |  | > 100 µM (inactive) | > 100 µM (inactive) | > 100 | > 100 µM (inactive) | > 100 µM (inactive) | > 100 µM (inactive) | 99.8 µM (inactive) | > 100 µM (inactive) | > 100 µM (inactive) | > 100 µM (inactive) | > 100 µM (inactive)
3 | c1ccc2c(c1)SC(=C1Sc3ccccc3S1)S2 | 22.4 µM (inactive) |  |  | > 100 µM (inactive) | 55.8 µM (inactive) | > 100 µM (inactive) |  | > 100 µM (inactive) | 61.7 µM (inactive) | > 100 µM (inactive) | > 100 | > 100 µM (inactive) |  | > 100 µM (inactive) | > 100 µM (inactive) | > 100 µM (inactive) |  | > 100 µM (inactive) | 
4 | CCCCCCN(CCCCCC)C(=O)Cc1c2n(c3ccccc13)Cc1ccccc1-2 | > 100 µM (inactive) | 29.6 µM (inactive) | > 100 µM (inactive) | 49.5 µM (inactive) | 63.1 µM (inactive) | 62.8 µM (inactive) |  | 99.1 µM (inactive) | 10.6 µM (inactive) | 44.8 µM (inactive) | 37.4 | > 100 µM (inactive) | 49.3 µM (inactive) | 69.8 µM (inactive) | 33.4 µM (inactive) | 44.6 µM (inactive) |  | > 100 µM (inactive) | 14.9 µM (inactive)

— ChEMBL document CHEMBL1201862, “PubChem BioAssay data set” (2004)
